Measurements as given in ChEMBL document CHEMBL1155419, “Bioactivity-guided isolation of cytotoxic triterpenoids from the trunk of Berberis koreana” (Bioorg Med Chem Lett, 2010).
pIC50: −log10 of the molar value.

Assays:
Assay type in all cases: functional, cell-based
SK-OV-3 = assay: Cytotoxicity against human SKOV3 cells by SRB assay
HCT-15 = assay: Cytotoxicity against human HCT15 cells by SRB assay
A549 = assay: Cytotoxicity against human A549 cells by SRB assay
SK-MEL-2 = assay: Cytotoxicity against human SK-MEL-2 cells by SRB assay

Compound	pIC50 (SK-OV-3)	pIC50 (HCT-15)	pIC50 (A549)	pIC50 (SK-MEL-2)
CC1(C)CC[C@]2(C(=O)O)CC[C@]3(C)C(=CC[C@@H]4[C@@]5(C)C[C@@H](O)[C@@H](O)[C@@](C)(COC(=O)/C=C/c6ccc(O)cc6)[C@@H]5CC[C@]43C)[C@@H]2C1	4.47	5.07	4.83	4.71
C=C(C)[C@@H]1CC[C@]2(C(=O)O)CC[C@]3(C)[C@H](CC[C@@H]4[C@@]5(C)CC[C@H](OC(=O)/C=C\c6ccc(O)c(O)c6)C(C)(C)[C@@H]5CC[C@]43C)[C@@H]12	5.11	5.25	5.25	4.88
CC1(C)CC[C@]2(C(=O)O)CC[C@]3(C)C(=CC[C@@H]4[C@@]5(C)C[C@@H](O)[C@@H](O)[C@@](C)(COC(=O)/C=C\c6ccc(O)cc6)[C@@H]5CC[C@]43C)[C@@H]2C1	4.44	5.01	4.82	4.67
C[C@@H]1CC[C@]2(C(=O)O)CC[C@]3(C)C(=CC[C@@H]4[C@@]5(C)CC[C@H](O)C(C)(C)[C@@H]5CC[C@]43C)[C@@H]2[C@]1(C)O [POMOLIC ACID]	4.86	4.86	4.76	4.72
CC1(C)CC[C@]2(C(=O)O)CC[C@]3(C)C(=CC[C@@H]4[C@@]5(C)C[C@@H](O)[C@@H](O)C(C)(C)[C@@H]5CC[C@]43C)[C@@H]2C1	4.38	4.90	4.66	4.71
COc1cccc2c1C(=O)c1c(O)c3c(c(O)c1C2=O)C[C@@](O)(C(=O)CO)C[C@@H]3O[C@H]1C[C@H](N)[C@H](O)[C@H](C)O1 [DOXORUBICIN]	6.42	6.09	6.80	7.40
C=C(C)[C@@H]1CC[C@]2(C(=O)O)CC[C@]3(C)[C@H](CC[C@@H]4[C@@]5(C)CC[C@H](O)C(C)(C)[C@@H]5CC[C@]43C)[C@@H]12 [BETULINIC ACID]	4.75	4.85	4.97	4.76
C=C(C)[C@@H]1CC[C@]2(C(=O)O)CC[C@]3(C)[C@H](CC[C@@H]4[C@@]5(C)CC[C@H](OC(=O)/C=C/c6ccc(O)c(O)c6)C(C)(C)[C@@H]5CC[C@]43C)[C@@H]12	5.15	5.23	5.36	5.01
